From patent US12558336B2, “Metabolic rescue of retinal degeneration” (The Board of Trustees of the Leland Stanford Junior …, priority 2019, dated 2026) come the findings set out here.

SMILES strings stand for the structures. “Also recorded” adds a separate entry of the source.

The test system of data set [1] is Pde6α^D670G mice. In words: Histological analysis of outer nuclear layer (ONL) thickness by number of photoreceptor cell nuclei. Format: in vivo, mouse. The settings on record: vs untreated Pde6α^D670G mice, one month of age. As for the experimental part: Histology—Mice were sacrificed and the eyes enucleated as previously described (19). Eyes were embedded in paraffin, sectioned, and stained with hematoxylin and eosin by Exaclibur Pathology, Inc. (Norman, OK), before being visualized by light microscopy (Leica DM 5000B, Leica Microsystems, Germany). Quantification of photoreceptor nuclei was conducted on several sections that contained the optic nerve, as follows: the distance between the optic nerve and the ciliary body was divided into four, approximately equal, quadrants. Three columns of nuclei (how many cell nuclei thick) were counted within each single quadrant. These counts were then used to determine the average thickness of the ONL for each individual animal at each time. Sectioning proceeded along the long axis of the segment, so that each section contained upper and lower retina as well as the posterior pole.
Gene ontology (GO) analysis was also performed in PANTHER.

Data set [2] has as its system Pde6α^D670G mice. In words: Electroretinography (ERG) of treated Pde6α^D670G arRP mice. The settings on record: vs untreated Pde6α^D670G mice, one month of age. Here is the method:
Mouse lines and husbandry—C57BL/6J-Pde6α^nmf363/nmf363, with a D670G mutation, herein referred to as Pde6α^D670G, mice were obtained from the Jackson Laboratory (Bar Harbor, ME, USA). Pde6α^D670G are co-isogenic in the C57BL/6J (B6) background; therefore, age-matched B6 mice were used as experimental controls. Mice were bred and maintained at the facilities of Columbia University and Stanford University. Animals were kept on a light-dark cycle (12 hour-12 hour). Food and water were available ad libitum throughout the experiment, whether treated or untreated. Dark-raising was performed under 24 hr dark cycle following approved institutional guidelines. […] All water bottles were covered in foil to reduce light exposure and changed weekly during the duration of the experiment following approved institutional guidelines.
Electroretinography (ERG)—Mice were dark-adapted overnight, manipulations were conducted under dim red-light illumination, and recordings were made using Espion or Celeris ERG Diagnosys equipment (Diagnosys LLL, Littleton, MA, USA) as previously described. Briefly, adult B6 control mice were tested at the beginning of each session to ensure equal readouts from the electrodes for both eyes before testing the experimental mice. Pupils were dilated using topical 2.5% phenylephrine hydrochloride and 1% tropicamide (Akorn Inc., Lakeforest, IL, USA). Mice were anesthetized by intraperitoneal injection of 0.1 ml/10 g body weight of anesthesia [1 ml ketamine 100 mg/ml (Ketaset III, Fort Dodge, IA, USA) and 0.1 ml xylazine 20 mg/ml (Lloyd Laboratories, Shenandoah, IA, USA) in 8.9 ml PBS]. Body temperature was maintained at 37° C. during the procedure. Both eyes were recorded simultaneously and responses were averaged for each trial. Responses were taken from the Espion/Celeris readout in microvolts.
Statistical and bioinformatics analysis—Results were also saved in Excel as .txt format and were uploaded into the Partek Genomics Suite 6.5 software package as described previously (5-9). The data was normalized to log base 2 and compared using 1-way ANOVA analysis. All proteins with non-significant (p>0.05) changes were eliminated from the table. The significant values were mapped using the ‘cluster based on significant genes’ visualization function with the standardization option chosen. […] Differences in experimental groups were determined by the Student's t-test as appropriate, or by one-way ANOVA followed by Tukey's post-hoc multiple comparison's test. p values <0.05 were considered significant. For ERG and histological analysis of mouse eyes, differences were determined by the Student's t-test as appropriate, or by one-way ANOVA followed by Tukey's post-hoc multiple comparison's test. p values<0.05 were considered significant.

`O=C(O)CCC(=O)C(=O)O` [alpha-ketoglutarate, Alpha-ketoglutaric acid]: in data set [1], the “thickness of the outer nuclear layer (ONL) by number of photoreceptor cell nuclei” value is “significant rescue of photoreceptor cells and their inner/outer segments; also recorded: significant increase in the thickness of the outer nuclear layer (ONL)”.

On to `NC(=O)c1cccnc1` [vitamin B3, Nicotinamide], for which, in data set [2], the “maximum scotopic a-wave response, quantification of ERGs from a cohort of mice” value is recorded as “no significant visual rescue”; the “maximum scotopic b-wave response, quantification of ERGs from a cohort of mice” value is reported as “no significant visual rescue”; the “rod photoreceptor cell response, quantification of ERGs from a cohort of mice” value is listed as “no significant visual rescue”. Further, in data set [2] (vitamins 2.5 g/L or alpha-ketoglutarate 10 g/L in drinking water from P0, ketogenic diet from P21), the “rod photoreceptor cell response, scotopic 0.1 dim-light rod-specific ERG (representative traces)” value is given as “increased rod photoreceptor functional response”.
